Values quoted from earlier work as cited in article PMC10649714, “Development and Identification of Novel α-Glucosidase Inhibitory Peptides from Mulberry Leaves” (Foods, 2023).

Biological target: α-glucosidase (Saccharomyces cerevisiae, UniProt P53341)
Conditions: Binglangjiang buffalo casein peptides
Excerpt: Bioactive peptides are composed of 2–20 amino acids. These peptides have no obvious activity in the macromolecular state but show anti-diabetes, anti-hypertension, anti-inflammation, anti-cancer, and other biological activities after degradation. Enzymatic hydrolysis is commonly employed in both research and industrial settings for the preparation of bioactive peptides due to its favorable attributes, including gentle reaction conditions and the ability to effectively regulate the reaction process. […] Although the precise chemical responsible for this benefit is unknown, the ancient Chinese medicinal book Qi Min Yao Shu referenced the effect of mulberry leaf as tr ... || To further verify the synthesis of peptides, in vitro activity tests were carried out. […] […].

Chain of α-glucosidase (P53341 whole entry): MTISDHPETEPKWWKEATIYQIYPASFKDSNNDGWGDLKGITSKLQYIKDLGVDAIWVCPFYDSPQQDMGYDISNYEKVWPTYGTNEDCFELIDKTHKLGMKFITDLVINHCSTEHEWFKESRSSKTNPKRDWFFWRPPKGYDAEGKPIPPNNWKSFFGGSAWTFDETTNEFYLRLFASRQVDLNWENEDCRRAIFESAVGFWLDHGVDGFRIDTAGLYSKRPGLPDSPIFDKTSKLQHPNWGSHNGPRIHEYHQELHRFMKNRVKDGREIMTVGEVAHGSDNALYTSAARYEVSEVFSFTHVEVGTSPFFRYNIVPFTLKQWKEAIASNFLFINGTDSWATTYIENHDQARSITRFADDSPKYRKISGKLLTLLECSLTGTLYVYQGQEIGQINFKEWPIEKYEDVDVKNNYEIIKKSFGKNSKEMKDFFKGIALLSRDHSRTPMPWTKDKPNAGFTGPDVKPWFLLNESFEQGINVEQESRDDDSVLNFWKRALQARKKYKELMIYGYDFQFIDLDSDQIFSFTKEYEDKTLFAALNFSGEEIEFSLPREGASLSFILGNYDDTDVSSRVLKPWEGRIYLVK

Row | Compound | IC50 ratio of peptide to acarbose
1 | FALPQYLK [Binglangjiang buffalo casein peptide] | approximately 2.5
2 | RNAVPITPTLNR [Binglangjiang buffalo casein peptide] | approximately 2.5
3 | TKVIPYVRYL [Binglangjiang buffalo casein peptide] | approximately 2.5
4 | YLGYLEQLLR [Binglangjiang buffalo casein peptide] | approximately 2.5

Same assay, conditions: Ginkgo biloba seed protein peptides

Row | Compound | IC50 ratio of peptide to acarbose
5 | LSMSFPPF [peptide from Ginkgo biloba seed protein] | 1.22
6 | MPGPPSD [peptide from Ginkgo biloba seed protein] | 2.54
7 | VPKIPPP [peptide from Ginkgo biloba seed protein] | 3.89

Same assay, conditions: in words; ref 9 (LDLQR, AGGFR, LDNFR), 11 (RVPSLM, KLPGF), ref 12 (SEDSSEVDIDLGNLG), ref 13 (TTGGKGGK), ref 14 (KETTTIVR)

Row | Compound | α-glucosidase inhibition in vitro
8 | AGGFR [wheat germ peptide] | excellent
9 | KETTTIVR [spicy wood seed protein-derived peptide] | excellent
10 | KLPGF [egg white protein-derived peptide] | excellent
11 | LDLQR [wheat germ peptide] | excellent
12 | LDNFR [wheat germ peptide] | excellent
13 | RVPSLM [egg white protein-derived peptide] | excellent
14 | SEDSSEVDIDLGNLG [sericin-derived peptide] | excellent
15 | TTGGKGGK [black bean protein-derived peptide] | excellent

Same assay, conditions: wheat germ peptides

Row | Compound | IC50 ratio of peptide to acarbose
16 | AGGFR [wheat germ peptide] | 2.54
17 | LDLQR [wheat germ peptide] | 2.52
18 | LDNFR [wheat germ peptide] | 2.70

System: α-glucosidase (PDB ID: 5ZCE)
Conditions: not given
Excerpt: All hydrogen bonds in this complex with a length less than 3.5 Å were considered to make a close contact, and the binding energy obtained was −8.78 kcal/mol. […] Along with other interaction forces, the binding energy was −8.75 kcal/mol. In addition, […] formed seven hydrogen bonds a ...

Row | Compound | binding sites with α-glucosidase
19 | C[C@@H]1O[C@@H](O[C@H]2C(=O)c3c(O)cc(O)cc3O[C@@H]2c2ccc(O)c(O)c2)[C@H](O)[C@H](O)[C@H]1O [astilbin] | ASP-60, ASP-199, HIS-203, GLN-256, and GLN-328
20 | O=c1c(O)c(-c2ccc(O)cc2O)oc2cc(O)cc(O)c12 [morin] | ASP-60, ASP-199, HIS-203, GLN-256, and GLN-328
21 | O=C(CCc1ccc(O)cc1)c1c(O)cc(O[C@@H]2O[C@H](CO)[C@@H](O)[C@H](O)[C@H]2O)cc1O [trilobatin] | ASP-60, ASP-199, HIS-203, GLN-256, and GLN-328
